Measured values: PubChem BioAssay AID180 (DTP/NCI, 2004)
Values joined by “and” are separate entries in the source; they are usually repeats but may differ in a detail not shown here. Identical values can stand only once.

System: BDF1 mice, Adenocarcinoma 755 s.c., tumor weight T/C
Experiment: NCI In Vivo Anticancer Drug Screen. Data for tumor model Adenocarcinoma 755 (subcutaneous) in B6D2F1 (BDF1) mice
Conditions: endpoint: mean tumor weight, higher = larger tumour
In short: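 Tumor-bearing mice receive test compound while controls get vehicle alone. Antitumor effect is scored from survival or tumor dimensions as a T/C quotient.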

[1] = dose: 50.0 mg/kg/injection, schedule: Q01DX011 (ip), vehicle: methylcellulose (MC)
[2] = dose: 100.0 mg/kg/injection, schedule: Q01DX011 (ip), vehicle: methylcellulose (MC)
[3] = dose: 200.0 mg/kg/injection, schedule: Q01DX011 (ip), vehicle: methylcellulose (MC)
[4] = dose: 75.0 mg/kg/injection, schedule: Q01DX011 (ip), vehicle: methylcellulose (MC)
[5] = dose: 25.0 mg/kg/injection, schedule: Q01DX011 (ip), vehicle: methylcellulose (MC)
[6] = dose: 200.0 mg/kg/injection, schedule: Q01DX011 (ip), vehicle: other

S=P(N1CC1)(N1CC1)N1CC1
T/C (dose: 0.3 mg/kg/injection, schedule: Q01DX011 (ip), vehicle: carboxymethylcellulose (CMC)): 60 % of control
T/C (dose: 0.48 mg/kg/injection, schedule: Q01DX011 (ip), vehicle: carboxymethylcellulose (CMC)): 45 % of control
T/C (dose: 0.58 mg/kg/injection, schedule: Q01DX011 (ip), vehicle: carboxymethylcellulose (CMC)): 91 % of control
T/C (dose: 0.6 mg/kg/injection, schedule: Q01DX011 (ip), vehicle: carboxymethylcellulose (CMC)): 53 % of control and 62 % of control (2×)
T/C (dose: 0.65 mg/kg/injection, schedule: Q01DX011 (ip), vehicle: carboxymethylcellulose (CMC)): 90 % of control
T/C (dose: 0.75 mg/kg/injection, schedule: Q01DX011 (ip), vehicle: methylcellulose (MC)): 62 % of control
T/C (dose: 0.8 mg/kg/injection, schedule: Q01DX011 (ip), vehicle: carboxymethylcellulose (CMC)): 53 % of control and 77 % of control
T/C (dose: 1.3 mg/kg/injection, schedule: Q01DX011 (ip), vehicle: carboxymethylcellulose (CMC)): 54 % of control
T/C (dose: 1.45 mg/kg/injection, schedule: Q01DX011 (ip), vehicle: carboxymethylcellulose (CMC)): 89 % of control and 99 % of control
T/C (dose: 1.5 mg/kg/injection, schedule: Q01DX011 (ip), vehicle: methylcellulose (MC)): 37 % of control
T/C (dose: 2.4 mg/kg/injection, schedule: Q01DX011 (ip), vehicle: carboxymethylcellulose (CMC)): 14 % of control and 29 % of control and 38 % of control
T/C (dose: 2.6 mg/kg/injection, schedule: Q01DX011 (ip), vehicle: carboxymethylcellulose (CMC)): 35 % of control
T/C (dose: 2.9 mg/kg/injection, schedule: Q01DX011 (ip), vehicle: carboxymethylcellulose (CMC)): 28 % of control and 52 % of control
T/C (dose: 3.0 mg/kg/injection, schedule: Q01DX011 (ip), vehicle: methylcellulose (MC)): 14 % of control
T/C (dose: 5.2 mg/kg/injection, schedule: Q01DX011 (ip), vehicle: carboxymethylcellulose (CMC)): 7 % of control and 9 % of control
T/C (dose: 6.0 mg/kg/injection, schedule: Q01DX011 (ip), vehicle: methylcellulose (MC)): 6 % of control
T/C (dose: 725.0 micrograms/kg/injection, schedule: Q01DX011 (ip), vehicle: carboxymethylcellulose (CMC)): 83 % of control
T/C (dose: 1450.0 micrograms/kg/injection, schedule: Q01DX011 (ip), vehicle: carboxymethylcellulose (CMC)): 30 % of control
T/C (dose: 2900.0 micrograms/kg/injection, schedule: Q01DX011 (ip), vehicle: carboxymethylcellulose (CMC)): 36 % of control
T/C (dose: 5800.0 micrograms/kg/injection, schedule: Q01DX011 (ip), vehicle: carboxymethylcellulose (CMC)): 26 % of control

CC[C@]1(O)C[C@H]2CN(CCc3c([nH]c4ccccc34)[C@@](C(=O)OC)(c3cc4c(cc3OC)N(C=O)[C@H]3[C@@](O)(C(=O)OC)[C@H](OC(C)=O)[C@]5(CC)C=CCN6CC[C@]43[C@@H]65)C2)C1
T/C (dose: 0.06 mg/kg/injection, schedule: Q01DX011 (ip), vehicle: saline): 95 % of control
T/C (dose: 0.12 mg/kg/injection, schedule: Q01DX011 (ip), vehicle: saline): 173 % of control
T/C (dose: 0.25 mg/kg/injection, schedule: Q01DX011 (ip), vehicle: saline): 54 % of control

O=C(OCC1OC(n2cnc3c(=O)[nH]cnc32)CC1OC(=O)c1ccccc1)c1ccccc1 (stereo not given)
T/C (dose: 60.0 mg/kg/injection, schedule: Q01DX011 (ip), vehicle: carboxymethylcellulose (CMC)): 101 % of control
T/C (dose: 120.0 mg/kg/injection, schedule: Q01DX011 (ip), vehicle: carboxymethylcellulose (CMC)): 90 % of control

O=C(NCCCl)N1CCN(C(=O)NCCCl)CC1
T/C [1]: 55 % of control
T/C [2]: 67 % of control
T/C [3]: 39 % of control
T/C (dose: 400.0 mg/kg/injection, schedule: Q01DX011 (ip), vehicle: methylcellulose (MC)): 24 % of control

CC(C)C(=O)OCC1OC(n2cnc3c(=S)nc(N)[nH]c32)C(OC(=O)C(C)C)C1OC(=O)C(C)C (stereo not given)
T/C (dose: 1.5 mg/kg/injection, schedule: Q01DX011 (ip), vehicle: carboxymethylcellulose (CMC)): 76 % of control and 79 % of control
T/C (dose: 3.0 mg/kg/injection, schedule: Q01DX011 (ip), vehicle: carboxymethylcellulose (CMC)): 43 % of control
T/C (dose: 6.0 mg/kg/injection, schedule: Q01DX011 (ip), vehicle: carboxymethylcellulose (CMC)): 25 % of control
T/C (dose: 12.0 mg/kg/injection, schedule: Q01DX011 (ip), vehicle: carboxymethylcellulose (CMC)): 18 % of control

Nc1nc(SCC(=O)c2ccc(Cl)cc2)c2ncn(C3OC(CO)C(O)C3O)c2n1 (stereo not given)
T/C (dose: 37.5 mg/kg/injection, schedule: Q01DX011 (ip), vehicle: methylcellulose (MC)): 62 % of control
T/C [4]: 44 % of control
T/C (dose: 150.0 mg/kg/injection, schedule: Q01DX011 (ip), vehicle: methylcellulose (MC)): 31 % of control
T/C (dose: 300.0 mg/kg/injection, schedule: Q01DX011 (ip), vehicle: methylcellulose (MC)): 24 % of control

CC(C)Cn1cnc2c(SCCCc3ccccc3)nc(N)nc21
T/C [5]: 72 % of control
T/C [1]: 39 % of control
T/C [2]: 10 % of control
T/C [3]: 8 % of control

O=P(N1CC=CCC1)(N1CC1)N1CC1
T/C (dose: 0.03 mg/kg/injection, schedule: Q01DX011 (ip), vehicle: saline): 75 % of control
T/C (dose: 0.05 mg/kg/injection, schedule: Q01DX011 (ip), vehicle: saline): 81 % of control
T/C (dose: 0.1 mg/kg/injection, schedule: Q01DX011 (ip), vehicle: saline): 114 % of control
T/C (dose: 0.2 mg/kg/injection, schedule: Q01DX011 (ip), vehicle: saline): 100 % of control
T/C (dose: 25.0 micrograms/kg/injection, schedule: Q01DX011 (ip), vehicle: saline): 120 % of control
T/C (dose: 50.0 micrograms/kg/injection, schedule: Q01DX011 (ip), vehicle: saline): 94 % of control
T/C (dose: 100.0 micrograms/kg/injection, schedule: Q01DX011 (ip), vehicle: saline): 114 % of control
T/C (dose: 200.0 micrograms/kg/injection, schedule: Q01DX011 (ip), vehicle: saline): 106 % of control

O=P(N1CCCCCC1)(N1CC1)N1CC1
T/C (dose: 1.0 mg/kg/injection, schedule: Q01DX011 (ip), vehicle: methylcellulose (MC)): 95 % of control
T/C (dose: 2.0 mg/kg/injection, schedule: Q01DX011 (ip), vehicle: methylcellulose (MC)): 68 % of control
T/C (dose: 4.0 mg/kg/injection, schedule: Q01DX011 (ip), vehicle: methylcellulose (MC)): 48 % of control
T/C (dose: 8.0 mg/kg/injection, schedule: Q01DX011 (ip), vehicle: methylcellulose (MC)): 28 % of control

CC1CCCN(/N=N/c2nc3c([nH]2)c(=O)n(C)c(=O)n3C)C1 (stereo not given)
T/C [5]: 66 % of control
T/C [4]: 61 % of control

CO[C@@H]1[C@@H](OC2OC(C)C(OC3CC(C)(O)C(OC(=O)CC(C)C)C(C)O3)C(N(C)C)C2O)[C@@H](CC=O)C[C@@H](C)C(=O)/C=C/C2O[C@H]2C[C@@H](C)OC(=O)C[C@H]1OC(C)=O (stereo not given in full)
T/C [6]: 66 % of control
T/C (dose: 250.0 mg/kg/injection, schedule: Q01DX011 (ip), vehicle: other): 60 % of control and 63 % of control
T/C (dose: 300.0 mg/kg/injection, schedule: Q01DX011 (ip), vehicle: other): 24 % of control and 33 % of control
T/C (dose: 350.0 mg/kg/injection, schedule: Q01DX011 (ip), vehicle: other): 45 % of control

c1ccc2cc(-c3cc4ccccc4s3)ccc2c1
T/C (dose: 100.0 mg/kg/injection, schedule: Q01DX011 (ip), vehicle: saline): 70 % of control
T/C (dose: 200.0 mg/kg/injection, schedule: Q01DX011 (ip), vehicle: saline): 59 % of control
T/C (dose: 400.0 mg/kg/injection, schedule: Q01DX011 (ip), vehicle: saline): 49 % of control
T/C (dose: 800.0 mg/kg/injection, schedule: Q01DX011 (ip), vehicle: saline): 42 % of control

O=C(O)/C=C\C(=O)Nc1nccs1
T/C (dose: 25.0 mg/kg/injection, schedule: Q01DX011 (ip), vehicle: carboxymethylcellulose (CMC)): 80 % of control

CC12CCC3C(CCC4CC=CCC43C)C1CCC2=O (stereo not given)
T/C (dose: 62.55 mg/kg/injection, schedule: Q01DX011 (sc), vehicle: steriod suspending solution): 90 % of control
T/C (dose: 125.0 mg/kg/injection, schedule: Q01DX011 (sc), vehicle: steriod suspending solution): 99 % of control
T/C (dose: 250.0 mg/kg/injection, schedule: Q01DX011 (sc), vehicle: steriod suspending solution): 60 % of control
T/C (dose: 500.0 mg/kg/injection, schedule: Q01DX011 (sc), vehicle: steriod suspending solution): 84 % of control

CCCCN(C)N=Nc1ccc(C(=O)OCC)cc1
T/C (dose: 125.0 mg/kg/injection, schedule: Q01DX011 (ip), vehicle: other): 37 % of control
T/C [6]: 31 % of control

CNc1ncnc2c1cnn2C
T/C (dose: 5.0 mg/kg/injection, schedule: Q01DX011 (ip), vehicle: methylcellulose (MC)): 65 % of control
T/C (dose: 10.0 mg/kg/injection, schedule: Q01DX011 (ip), vehicle: methylcellulose (MC)): 55 % of control
T/C (dose: 20.0 mg/kg/injection, schedule: Q01DX011 (ip), vehicle: methylcellulose (MC)): 29 % of control

O=C(CCBr)NCCNC(=O)CCBr
T/C [1]: 15 % of control
T/C [2]: 3 % of control
